From patent US20240124466A1, “COMPOUNDS AND USE THEREOF FOR TREATMENT OF NEURODEGENERATIVE, DEGENERATIVE AND METABOLIC DISORDERS” (VOVA IDA THERAPEUTICS, INC., priority 2020, published 2024)

test system: PK1 neuroblastoma cells exposed to TPrP; experiment: cells; conditions: Neuroblastoma cell, 96 h, read-out: TPrP EC50

Row | SMILES | EC50
1 | Cc1ccc(-c2nnc(-c3ccccc3)[nH]2)cc1S(=O)(=O)NCc1cncnc1 [SR-33344, 2-Methyl-5-(5-phenyl-4H-1,2,4-triazol-3-yl)-N-(pyrimidin-5-ylmethyl)benzene sulfonamide] | 650 nM
2 | COc1ccc(-c2nnc(-c3ccccc3)[nH]2)cc1S(=O)(=O)N1CCOCC1 [SR-26624, 4-((2-Methoxy-5-(5-phenyl-4H-1,2,4-triazol-3-yl)phenyl)sulfonyl) morpholine] | 260 nM
3 | Cc1ccc(-c2n[nH]c(-c3ccccc3)n2)cc1S(=O)(=O)N1CCOCC1 [SR-25604-2] | 40 nM
4 | Cc1ccc(-c2ccnc(Cl)c2)cc1S(=O)(=O)N1CCN(CCF)CC1 [SR-35017, 1-((5-(2-Chloropyridin-4-yl)-2-methylphenyl)sulfonyl)-4-(2-fluoroethyl) piperazine] | 900 nM
5 | Cc1ccc(-c2nnc(-c3ccc(Br)cc3)[nH]2)cc1S(=O)(=O)N1CCOCC1 [SR-28144, 4-((5-(5-(4-Bromophenyl)-4H-1,2,4-triazol-3-yl)-2-methylphenyl)sulfonyl) morpholine] | 40 nM
6 | COCCN1CCN(S(=O)(=O)c2cc(-c3nnc(-c4ccccc4)[nH]3)ccc2C)CC1 [SR-34533, 1-(2-Methoxyethyl)-4-((2-methyl-5-(5-phenyl-4H-1,2,4-triazol-3-yl)phenyl)sulfonyl)piperazine] | > 1500 nM
7 | Cc1cc(C)c(S(=O)(=O)N2CCN(CCO)CC2)cc1-c1nnc(-c2ccccc2)[nH]1 [SR-34778, 2-(4-((2,4-Dimethyl-5-(5-phenyl-4H-1,2,4-triazol-3-yl)phenyl)sulfonyl)piperazin-1-yl)ethan-1-ol] | 13 nM
8 | Cc1ccc(-c2nnc(-c3ccccc3)[nH]2)cc1S(=O)(=O)N1CCC2(CCCO2)CC1 [SR-32925, 8-((2-Methyl-5-(5-phenyl-4H-1,2,4-triazol-3-yl)phenyl)sulfonyl)-1-oxa-8-azaspiro[4.5]decane] | > 1500 nM
9 | Cc1ccc(-c2nnc(-c3ccccc3)[nH]2)cc1S(=O)(=O)N1CCC(O)(Cc2ccccc2)CC1 [SR-33024, 4-Benzyl-1-((2-methyl-5-(5-phenyl-4H-1,2,4-triazol-3-yl)phenyl)sulfonyl) piperidin-4-ol] | > 1500 nM
10 | Cc1ccc(-c2nnc(-c3ccccc3)[nH]2)cc1S(=O)(=O)N1CCCC2(C1)OCCO2 [SR-33045, 7-((2-Methyl-5-(5-phenyl-4H-1,2,4-triazol-3-yl)phenyl)sulfonyl)-1,4-dioxa-7-azaspiro[4.5]decane] | > 1500 nM
11 | O=S(=O)(c1ccc(-c2nnc(-c3ccccc3)[nH]2)cc1Cl)N1CCOCC1 [SR-26324, 4-((2-Chloro-4-(5-phenyl-4H-1,2,4-triazol-3-yl)phenyl)sulfonyl)morpholine] | > 320 nM
12 | Cc1ccc(-c2nnc(-c3ccccc3)[nH]2)cc1S(=O)(=O)NC1CCC2(CC1)OCCO2 [SR-32764, 2-Methyl-5-(5-phenyl-4H-1,2,4-triazol-3-yl)-N-(1,4-dioxaspiro[4.5]decan-8-yl)benzenesulfonamide] | > 1500 nM
13 | Cc1c(F)cc(-c2nnc(-c3ccccc3)[nH]2)cc1S(=O)(=O)N1CCN(CCO)CC1 [SR-33604, 2-(4-((3-Fluoro-2-methyl-5-(5-phenyl-4H-1,2,4-triazol-3-yl)phenyl)sulfonyl)piperazin-1-yl)ethan-1-ol] | 90 nM
14 | Cc1ccc(-c2nnc(C)c3ccccc23)cc1S(=O)(=O)N1CCOCC1 [SR-26424, 4-((2-Methyl-5-(4-methylphthalazin-1-yl)phenyl)sulfonyl)morpholine] | > 320 nM
15 | Cc1ccc(-c2nnc(-c3ccccc3)[nH]2)cc1S(=O)(=O)N1CCC(CCO)CC1 [SR-33725, 2-(1-((2-Methyl-5-(5-phenyl-4H-1,2,4-triazol-3-yl)phenyl)sulfonyl)piperidin-4-yl)ethan-1-ol] | > 1500 nM
16 | Cc1ccc(-c2cnn(Cc3ccccc3)c2)cc1S(=O)(=O)N1CCOCC1 [SR-28764, 4-((5-(1-Benzyl-1H-pyrazol-4-yl)-2-methylphenyl)sulfonyl)morpholine] | 150 nM
17 | Cc1ccc(-c2ccncc2)cc1S(=O)(=O)N1CCOCC1 [SR-24583] | 100 nM
18 | Cc1ccc(-c2nnc(-c3ccccc3)o2)cc1S(=O)(=O)N1CCOCC1 [SR-27558, 4-((2-Methyl-5-(5-phenyl-1,3,4-oxadiazol-2-yl)phenyl)sulfonyl)morpholine] | 140 nM
19 | Cc1ccc(-c2cn(-c3ccccc3)nn2)cc1S(=O)(=O)N1CCOCC1 [SR-30084, 4-((2-Methyl-5-(1-phenyl-1H-1,2,3-triazol-4-yl)phenyl)sulfonyl)morpholine] | 30 nM
20 | Cc1ccc(-c2nnc(-c3ccccc3)[nH]2)cc1S(=O)(=O)N1CCC(O)C1 (centres unmarked) [SR-32284, 1-((2-Methyl-5-(5-phenyl-4H-1,2,4-triazol-3-yl)phenyl)sulfonyl)pyrrolidin-3-ol] | 550 nM
21 | Cc1ccc(-c2cnn(C)c2)cc1S(=O)(=O)N1CCOCC1 [SR-24578] | 100 nM
22 | CC(=O)NC1CCN(CCn2cc(-c3ccc(C)c(S(=O)(=O)N4CCOCC4)c3)cn2)CC1 [SR-25864, N-(1-(2-(4-(4-methyl-3-(morpholinosulfonyl)phenyl)-1H-pyrazol-1-yl)ethyl)piperidin-4-yl)acetamide] | 120 nM

Row | SMILES | EC50
23 | Cc1ccc(-c2nnc(-c3ccccc3)n2C)cc1S(=O)(=O)N1CCOCC1 [SR-28864, 4-((2-Methyl-5-(4-methyl-5-phenyl-4H-1,2,4-triazol-3-yl)phenyl)sulfonyl) morpholine] | > 1200 nM
24 | Cc1ccc(-c2nnc(-c3ccccc3)[nH]2)cc1S(=O)(=O)N1CCN(CCO)CC1 [SR-32124] | 15 nM
25 | Cc1ccc(-c2cnn(CCN3CCOCC3)c2)cc1S(=O)(=O)N1CCOCC1 [SR-24581] | 100 nM
26 | Cc1ccc(-c2ncc(-c3ccccc3)[nH]2)cc1S(=O)(=O)N1CCOCC1 [SR-28804, 4-((2-Methyl-5-(5-phenyl-1H-imidazol-2-yl)phenyl)sulfonyl)morpholine] | 400 nM
27 | Cc1ccc(-c2nc3ccccn3n2)cc1S(=O)(=O)N1CCOCC1 [SR-26524, 4-((5-([1,2,4]Triazolo[1,5-a]pyridin-2-yl)-2-methylphenyl)sulfonyl) morpholine] | 50 nM
28 | CC(=O)NCCNc1cc(-c2ccc(C)c(S(=O)(=O)N3CCOCC3)c2)ccn1 [SR-25104, N-(2-((4-(4-methyl-3-(morpholinosulfonyl)phenyl)pyridin-2-yl)amino)ethyl) acetamide] | 100 nM
29 | Cc1ccc(-c2nnc(-c3ccccc3)[nH]2)cc1C(=O)N1CCOCC1 [SR-32044, (2-Methyl-5-(5-phenyl-4H-1,2,4-triazol-3-yl)phenyl)(morpholino)methanone] | ~1500 nM
30 | Cc1ccc(-c2cnn(-c3ccccc3)c2)cc1S(=O)(=O)N1CCOCC1 [SR-28925, 4-((2-Methyl-5-(1-phenyl-1H-pyrazol-4-yl)phenyl)sulfonyl)morpholine] | 20 nM
31 | Cc1ccc(-c2nnc(-c3ccccc3)[nH]2)cc1S(=O)(=O)N1CCC(O)(c2cccnc2)CC1 [SR-32924, 1-((2-Methyl-5-(5-phenyl-4H-1,2,4-triazol-3-yl)phenyl)sulfonyl)-4-(pyridin-3-yl)piperidin-4-ol] | > 1500 nM
32 | Cc1ccc(-c2c[nH]cc2-c2ccccc2)cc1S(=O)(=O)N1CCOCC1 [SR-29285, 4-((2-Methyl-5-(4-phenyl-1H-pyrrol-3-yl)phenyl)sulfonyl)morpholine] | > 1200 nM
33 | Cc1ccc(-c2ccnc(N3CCOCC3)c2)cc1S(=O)(=O)N1CC(O)C1 [SR-34464, 1-((2-Methyl-5-(2-morpholinopyridin-4-yl)phenyl)sulfonyl)azetidin-3-ol] | 300 nM
34 | Cc1ccc(-c2ccn(-c3ccccc3)c2)cc1S(=O)(=O)N1CCOCC1 [SR-29084, 4-((2-Methyl-5-(1-phenyl-1H-pyrrol-3-yl)phenyl)sulfonyl)morpholine] | 600 nM
35 | Cc1ccc(-c2nnc(-c3ccccc3)[nH]2)cc1S(=O)(=O)N1CCC2(CC1)OCCCO2 [SR-32744, 9-((2-Methyl-5-(5-phenyl-4H-1,2,4-triazol-3-yl)phenyl)sulfonyl)-1,5-dioxa-9-azaspiro[5.5]undecane] | > 1500 nM
36 | Cc1ccc(-c2cnc3ccccn23)cc1S(=O)(=O)N1CCOCC1 [SR-27444, 4-((5-(Imidazo[1,2-a]pyridin-3-yl)-2-methylphenyl)sulfonyl)morpholine] | > 320 nM
37 | Cc1ccc(-c2ccnc(Cl)c2)cc1S(=O)(=O)N1CCN(CCCO)CC1 [SR-35129, 3-(4-((5-(2-Chloropyridin-4-yl)-2-methylphenyl)sulfonyl)piperazin-1-yl)propan-1-ol] | > 1500 nM
38 | Cc1ccc(-c2ccnc(Cl)c2)cc1S(=O)(=O)N1CCN(CC(F)(F)F)CC1 [SR-35324, 1-((5-(2-Chloropyridin-4-yl)-2-methylphenyl)sulfonyl)-4-(2,2,2-trifluoroethyl) piperazine] | > 1500 nM
39 | CC(=O)N(C)CCN(C)c1cc(-c2ccc(C)c(S(=O)(=O)N3CCOCC3)c2)ccn1 [SR-25124, N-methyl-N-(2-(methyl(4-(4-methyl-3-(morpholinosulfonyl)phenyl)pyridin-2-yl)amino)ethyl)acetamide] | 240 nM
40 | C#CCCC(=O)CCn1cc(-c2ccc(C)c(S(=O)(=O)N3CCN(CCc4ccncc4)CC3)c2)cn1 [SR-35186, 1-(4-(4-Methyl-3-((4-(2-(pyridin-4-yl)ethyl)piperazin-1-yl)sulfonyl)phenyl)-1H-pyrazol-1-yl)hept-6-yn-3-one] | < 5 nM
41 | Cc1ccc(-c2nnc(-c3ccccc3)[nH]2)cc1S(=O)(=O)N1CCC2(CC1)OCc1ccccc12 [SR-32984, 1′-((2-Methyl-5-(5-phenyl-4H-1,2,4-triazol-3-yl)phenyl)sulfonyl)-3H-spiro[isobenzofuran-1,4′-piperidine]] | > 1500 nM
42 | Cc1ccc(-c2nnc(-c3ccccc3)[nH]2)cc1S(=O)(=O)N1CCN(C2COC2)CC1 [SR-32324, 1-((2-Methyl-5-(5-phenyl-4H-1,2,4-triazol-3-yl)phenyl)sulfonyl)-4-(oxetan-3-yl)piperazine] | 900 nM
43 | O=S(=O)(c1cc(-c2nnc(-c3ccccc3)[nH]2)ccc1C(F)(F)F)N1CCOCC1 [SR-28125, 4-((5-(5-Phenyl-4H-1,2,4-triazol-3-yl)-2-(trifluoromethyl)phenyl)sulfonyl) morpholine] | 30 nM
44 | Cc1ccc(-c2c(C)nn(C)c2C)cc1S(=O)(=O)N1CCOCC1 [SR-25584, 4-((2-Methyl-5-(1,3,5-trimethyl-1H-pyrazol-4-yl)phenyl)sulfonyl)morpholine] | > 320 nM
